Source: patent US20240400553A1, “AMINE BASED MATRIPTASE 2 INHIBITORS AND USES THEREOF” (Disc Medicine, Inc., priority 2023, published 2024)

Biological target: T1, Human Recombinant Matriptase 2 (Homo sapiens, UniProt Q8IU80)
T1 construct: made in house
T1 sequence (Q8IU80 1-811): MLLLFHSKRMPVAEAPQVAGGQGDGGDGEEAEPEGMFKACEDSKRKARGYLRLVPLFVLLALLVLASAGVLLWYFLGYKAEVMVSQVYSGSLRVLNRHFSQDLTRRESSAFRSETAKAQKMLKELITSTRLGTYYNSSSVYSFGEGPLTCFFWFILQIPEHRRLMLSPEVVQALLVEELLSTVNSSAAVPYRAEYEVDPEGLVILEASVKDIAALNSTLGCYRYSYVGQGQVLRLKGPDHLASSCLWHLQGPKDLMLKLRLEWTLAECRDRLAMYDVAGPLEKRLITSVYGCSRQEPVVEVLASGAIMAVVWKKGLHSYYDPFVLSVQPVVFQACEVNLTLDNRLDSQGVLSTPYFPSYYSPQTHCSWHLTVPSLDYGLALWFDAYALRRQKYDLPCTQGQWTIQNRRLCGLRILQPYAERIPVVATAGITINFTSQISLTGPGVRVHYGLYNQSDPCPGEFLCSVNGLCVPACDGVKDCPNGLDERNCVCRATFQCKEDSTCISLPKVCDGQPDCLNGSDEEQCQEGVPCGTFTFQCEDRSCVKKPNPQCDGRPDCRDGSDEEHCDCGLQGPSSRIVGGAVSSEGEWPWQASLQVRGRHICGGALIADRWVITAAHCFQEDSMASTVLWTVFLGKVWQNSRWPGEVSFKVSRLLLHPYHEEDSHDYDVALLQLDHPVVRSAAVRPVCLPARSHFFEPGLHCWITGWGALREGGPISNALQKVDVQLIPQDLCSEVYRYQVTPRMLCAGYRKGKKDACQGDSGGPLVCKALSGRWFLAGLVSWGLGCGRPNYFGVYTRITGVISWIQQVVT
Assay: Matriptase 2 inhibition, fluorescence based assay (Method I)
Format: biochemical
Settings: Table A; Ki of Matriptase-2 given as class symbols; read-out: Mat-2 Ki
Method in brief: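 In-house recombinant enzyme (3.5 nM), preincubated 30 min with compound, then Boc-Gln-Ala-Arg-AMC substrate (62 μM) in 50 mM Tris pH 7.5, 150 mM NaCl, 0.01% gelatin, 1% DMSO, 25 °C. Fluorescence (Ex 360/Em 480 nm) read 60 min after substrate; IC50 from variable-slope sigmoidal fit of % inhibition.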

Q: For `CCOC(=O)c1cc2ccc(CN)nc2n1Cc1cc(NS(=O)(=O)Cc2c(C)cccc2C)cc2ccccc12` [Compound 202, ethyl 6-(aminomethyl)-1-({3-[(2,6-dimethyl-phenyl)methanesulfon-amido]naphthalen-1-yl}-methyl)-1H-pyrrolo[2,3-b]pyridine-2-carboxylate], which Ki is on record?
A: Its Ki is 500 to 3000 nM.

Q: `CN1CCC(COC(=O)c2cc3ccc(CN)nc3n2Cc2cc(NS(=O)(=O)Cc3ccccc3O)cc3ccccc23)CC1` [Compound 203] was tested. Which Ki did it give?
A: The Ki was at most 100 nM.

Q: For `Cc1ccccc1CS(=O)(=O)Nc1cc(Cn2c(C(=O)OCC3CCN(C)CC3)cc3ccc(CN)nc32)c2ccccc2c1` [Compound 204], which Ki is on record?
A: Its Ki is at most 100 nM.

Q: Which Ki does the source give for `CN1CCC(COC(=O)c2cc3ccc(CN)nc3n2Cc2cc(NS(=O)(=O)Cc3ccccc3F)cc3ccccc23)CC1` [Compound 205, (1-methylpiperidin-4-yl)methyl 6-(aminometh-yl)-1-({3-[(2-fluorophen-yl)methanesulfonamido]-naphthalen-1-yl}methyl)-1H-pyrrolo[2,3-b]pyr-idine-2-carboxylate] here?
A: Its Ki is at most 100 nM.

Q: `CN1CCC(COC(=O)c2cc3ccc(CN)nc3n2Cc2cc(NS(=O)(=O)Cc3ccc(F)cc3)cc3ccccc23)CC1` [Compound 206, (1-methylpiperidin-4-yl)-methyl 6-(aminomethyl)-1-({3-[(4-fluorophenyl)-methanesulfonamido]-naphthalen-1-yl}meth-yl)-1H-pyrrolo[2,3-b]-pyridine-2-carboxylate] was tested. Which Ki did it give?
A: Its Ki is at most 100 nM.

Q: `CN1CCC(COC(=O)c2cc3ccc(CN)nc3n2Cc2cc(NS(=O)(=O)Cc3ccoc3)cc3ccccc23)CC1` [Compound 207, (1-methylpiperidin-4-yl)-methyl 6-(aminomethyl)-1-({3-[(furan-3-yl)meth-anesulfonamido]naph-thalen-1-yl}methyl)-1H-pyrrolo[2,3-b]pyridine-2-carboxylate] was tested. Which Ki did it give?
A: Its Ki is at most 100 nM.

Q: How did the Ki turn out when `NCc1ccc2cc(C(=O)Nc3nnn[nH]3)n(Cc3cc(NS(=O)(=O)CC[C@@H]4CCCN4)cc4ccccc34)c2n1` [Compound 208, 6-(aminomethyl)-1-[(3-(2-[(2S)-pyrrolidin-2-yl]ethanesulfonamido}-naphthalen-1-yl)methyl]-N-(1H-1,2,3,4-tetrazol-5-yl)-1H-pyrrolo[2,3-b]-pyridine-2-carboxamide] was run?
A: Its Ki is at most 100 nM.

Q: `CN1CCC(COC(=O)c2cc3ccc(CN)nc3n2Cc2cc(NS(=O)(=O)Cc3ccccc3C(F)(F)F)cc3ccccc23)CC1` [Compound 209, (1-methylpiperidin-4-yl)-methyl 6-(aminomethyl)-1-[(3-{[2-(trifluorometh-yl)phenyl]methanesul-fonamido}naphthalen-1-yl)methyl]-1H-pyrrolo-[2,3-b]pyridine-2-car-boxylate] was tested. Which Ki did it give?
A: Its Ki is at most 100 nM.

Q: For `CN1CCC(COC(=O)c2cc3ccc(CN)nc3n2Cc2cc(NS(=O)(=O)Cc3cnsc3)cc3ccccc23)CC1` [Compound 210, (1-methylpiperidin-4-yl)-methyl 6-(aminomethyl)-1-({3-[(1,2-thiazol-4-yl)-methanesulfonamido]-naphthalen-1-yl}methyl)-1H-pyrrolo[2,3-b]pyr-idine-2-carboxylate], which Ki is on record?
A: Its Ki is at most 100 nM.

Q: For `COCCN1CCC(CS(=O)(=O)Nc2cc(Cn3c(C(=O)O)cc4ccc(CN)nc43)c3ccccc3c2)CC1` [Compound 211, 6-(aminomethyl)-1-[(3-{[1-(2-methoxyethyl)-piperidin-4-yl]methane-sulfonamido}naphthalen-1-yl)methyl]-1H-pyr-rolo[2,3-b]pyridine-2-carboxylic acid], which Ki is on record?
A: The Ki was at most 100 nM.

Q: How did the Ki turn out when `Cc1ccccc1CS(=O)(=O)Nc1cc(Cn2c(C(=O)O)cc3ccc(CN)nc32)c2ccccc2c1` [Compound 212, 6-(aminomethyl)-1-({3-[(2-methylphenyl)meth-anesulfonamido]naph-thalen-1-yl}methyl)-1H-pyrrolo[2,3-b]pyridine-2-carboxylic acid] was run?
A: Its Ki is at most 100 nM.

Q: How did the Ki turn out when `NCc1ccc2cc(C(N)=O)n(Cc3cc(NS(=O)(=O)CC[C@@H]4CCCN4)cc4ccccc34)c2n1` [Compound 213, 6-(aminomethyl)-1-[(3-{2-[(2S)-pyrrolidin-2-yl]ethanesulfonamido}-naphthalen-1-yl)methyl]-1H-pyrrolo[2,3-b]pyr-idine-2-carboxamide] was run?
A: Its Ki is at most 100 nM.

Q: `NCc1ccc2cc(C(=O)O)n(Cc3cc(NS(=O)(=O)CCN4CCNCC4)cc4ccccc34)c2n1` [Compound 214, 6-(aminomethyl)-1-({3-[2-(piperazin-1-yl)-ethanesulfonamido]-naphthalen-1-yl}meth-yl)-1H-pyrrolo[2,3-b]-pyridine-2-carboxylic acid] was tested. Which Ki did it give?
A: Its Ki is at most 100 nM.

Q: With `CNC(=O)c1cc2ccc(CN)nc2n1Cc1cc(NS(=O)(=O)CC2CCNCC2)cc2ccccc12` [Compound 215, 6-(aminomethyl)-N-methyl-1-({3-[(piperi-din-4-yl)methanesulfon-amido]naphthalen-1-yl}-methyl)-1H-pyrrolo[2,3-b]pyridine-2-carboxamide] as the compound, how does the Ki read?
A: The Ki was 100 to 500 nM.

Q: Which Ki does the source give for `NCc1ccc2cc(C(=O)O)n(Cc3cc(NS(=O)(=O)CC4CCNCC4)cc4ccccc34)c2n1` [Compound 216, 6-(aminomethyl)-1-({3-[(piperidin-4-yl)methane-sulfonamido]naphthalen-1-yl}methyl)-1H-pyr-rolo[2,3-b]pyridine-2-carboxylic acid] here?
A: Its Ki is 100 to 500 nM.

Q: How did the Ki turn out when `NCc1ccc2cc(C(=O)O)n(Cc3cc(NS(=O)(=O)CC[C@H]4CCCN4)cc4ccccc34)c2n1` [Compound 217, 6-(aminomethyl)-1-[(3-{2-[(2R)-pyrrolidin-2-yl]ethanesulfonamido}-naphthalen-1-yl)methyl]-1H-pyrrolo[2,3-b]pyr-idine-2-carboxylic acid] was run?
A: Its Ki is 100 to 500 nM.

Q: For `N#Cc1cccc(CS(=O)(=O)Nc2cc(Cn3c(C(=O)O)cc4ccc(CN)nc43)c3ccccc3c2)c1` [Compound 218, 6-(aminomethyl)-1-({3-[(3-cyanophenyl)meth-anesulfonamido]naph-thalen-1-yl}methyl)-1H-pyrrolo[2,3-b]pyridine-2-carboxylic acid], which Ki is on record?
A: Its Ki is 100 to 500 nM.

Q: Which Ki does the source give for `CN(C)CCCCS(=O)(=O)Nc1cc(Cn2c(C(=O)O)cc3ccc(CN)nc32)c2ccccc2c1` [Compound 219, 6-(aminomethyl)-1-({3-[4-(dimethylamino)-butanesulfonamido]naph-thalen-1-yl}methyl)-1H-pyrrolo[2,3-b]pyridine-2-carboxylic acid] here?
A: Its Ki is 100 to 500 nM.

Q: `NCc1ccc2cc(C(=O)O)n(Cc3cc(NS(=O)(=O)Cc4ccoc4)cc4ccccc34)c2n1` [Compound 220, 6-(aminomethyl)-1-({3-[(furan-3-yl)methane-sulfonamido]naphthalen-1-yl}methyl)-1H-pyr-rolo[2,3-b]pyridine-2-carboxylic acid] was tested. Which Ki did it give?
A: The Ki was 100 to 500 nM.

Q: How did the Ki turn out when `CN1CCC(COC(=O)c2cc3ccc(CN)nc3n2Cc2cc(NS(=O)(=O)Cc3cccc(C#N)c3)cc3ccccc23)CC1` [Compound 221, (1-methylpiperidin-4-yl)methyl 6-(aminometh-yl)-1-({3-[(3-cyanophen-yl)methanesulfonamido]-naphthalen-1-yl}methyl)-1H-pyrrolo[2,3-b]pyr-idine-2-carboxylate] was run?
A: Its Ki is 100 to 500 nM.

Q: With `NCc1ccc2cc(C(=O)O)n(Cc3cc(NS(=O)(=O)Cc4ccccn4)cc4ccccc34)c2n1` [Compound 222, 6-(aminomethyl)-1-({3-[(pyridin-2-yl)methane-sulfonamido]naphthalen-1-yl}methyl)-1H-pyr-rolo[2,3-b]pyridine-2-carboxylic acid] as the compound, how does the Ki read?
A: Its Ki is 100 to 500 nM.

Q: How did the Ki turn out when `NCc1ccc2cc(C(=O)O)n(Cc3cc(NS(=O)(=O)CCC4CCNCC4)cc4ccccc34)c2n1` [Compound 223, 6-(aminomethyl)-1-({3-[2-(piperidin-4-yl)-ethanesulfonamido]-naphthalen-1-yl}meth-yl)-1H-pyrrolo[2,3-b]-pyridine-2-carboxylic acid] was run?
A: The Ki was 100 to 500 nM.

Q: For `NCc1ccc2cc(C(=O)O)n(Cc3cc(NS(=O)(=O)Cc4ccccc4C(F)(F)F)cc4ccccc34)c2n1` [Compound 225, 6-(aminomethyl)-1-[(3-{[2-(trifluoromethyl)-phenyl]methanesulfon-amido}naphthalen-1-yl)methyl]-1H-pyrrolo-[2,3-b]pyridine-2-car-boxylic acid], which Ki is on record?
A: Its Ki is 100 to 500 nM.

Q: With `NCc1ccc2cc(C(=O)O)n(Cc3cc(NS(=O)(=O)CCn4cnnn4)cc4ccccc34)c2n1` [Compound 226, 6-(aminomethyl)-1-({3-[2-(1H-1,2,3,4-tetrazol-1-yl)ethanesulfonamido]-naphthalen-1-yl}methyl)-1H-pyrrolo[2,3-b]pyr-idine-2-carboxylic acid] as the compound, how does the Ki read?
A: The Ki was 100 to 500 nM.

Q: With `NCc1ccc2cc(C(=O)O)n(Cc3cc(NS(=O)(=O)Cc4ccccc4F)cc4ccccc34)c2n1` [Compound 227, 6-(aminomethyl)-1-({3-[(2-fluorophenyl)meth-anesulfonamido]naph-thalen-1-yl}methyl)-1H-pyrrolo[2,3-b]pyridine-2-carboxylic acid] as the compound, how does the Ki read?
A: Its Ki is 100 to 500 nM.
